Measured values from EP0068408A1 (priority 1981, dated 1983).
Values after ≈ are worked out from the molar mass of the structure shown. Where two headings read alike, the source gives them in different places.

Experiments:
[1] = tested on: Influenza A0; test: microbe, parasite or virus in culture; format: cell-based; settings: virus A = Influenza A0, MDCK, Vero and HEL cells, 2 or 3 days
[2] = tested on: Influenza A1; test: microbe, parasite or virus in culture; format: cell-based
[3] = tested on: Influenza B; test: microbe, parasite or virus in culture; format: cell-based
[4] = tested on: Parainfluenza Type 3; test: microbe, parasite or virus in culture; format: cell-based; settings: virus E = Parainfluenza Type 3
[5] = tested on: ECHO; test: microbe, parasite or virus in culture; format: cell-based
[6] = tested on: Coxsackie Type B5; test: microbe, parasite or virus in culture; format: cell-based; settings: virus G = Coxsackie Type B5
[7] = tested on: Rhino; test: microbe, parasite or virus in culture; format: cell-based
[8] = tested on: influenza A0 virus; test: animal or person; format: in vivo, mice; settings: for protective action against death due to the infection: result in words, Tables 3 and 4
[9] = Acute toxicity in mice (LD50); format: in vivo; settings: ddY male mice, suspended in 5% Arabic gum solution, observed for 7 days; for LD50 at 168 h: mouse, in vivo
Experimental: Experimental Example 7: Acute Toxicity in Mice
Each compound of the invention was suspended in 5% Arabic gum solution and given orally (p.o.) or intraperitoneally (i.p.) to groups of ten ddY male mice weighed from 24 to 26 g at the dosage volume of 10 ml/kg. […] LD50 was determined according to the method of Wilcoxon and Litchfield.

[10] = tested on: influenza virus A/WSN; test: animal or person; format: in vivo, mice; settings: in Mus musculus, 360 h, read-out: Survival rate
[11] = Mus musculus, 360 h, oral, twice a day for 14 days, survivors at 15th day, read-out: Survival rate
[12] = Mus musculus, ip, 360 h, intraperitoneal, twice a day for 14 days, survivors at 15th day, read-out: Survival rate
[13] = ip, i.p., read-out: LD50 value, Intraperitoneal administration
[14] = po, p.o., read-out: LD50 value, Oral administration

| SMILES | MIC [1] [µg/mL] | MIC [2] [µg/mL] | MIC [3] [µg/mL] | MIC [4] [µg/mL] | MIC [5] [µg/mL] | MIC [6] [µg/mL] | MIC [7] [µg/mL] | responders at 300 mg/kg [8, 11] [%] | LD50 at 168 h [9, 13] [mg/kg] | LD50 at 168 h [9, 14] [mg/kg] | LD50 value, Intraperitoneal administration ([9]; i.p.) | LD50 value, Oral administration ([9]; p.o.) | further results |
| --- | --- | --- | --- | --- | --- | --- | --- | --- | --- | --- | --- | --- | --- |
| N=C(N)NS(=O)(=O)c1cc(C(=O)O)c(Cl)cc1Cl [Compound 21] | 100 (≈ 320 µM) | 300 (≈ 961 µM) | 300 (≈ 961 µM) | 300 (≈ 961 µM) | 300 (≈ 961 µM) | 300 (≈ 961 µM) | 100 (≈ 320 µM) | 50 | 987 | > 3000 | – | – | responders at 100 mg/kg [8, 12]: 40% |
| CC(C)NS(=O)(=O)c1cc(C(=O)O)ccc1Cl [Compound 8] | – | – | – | – | – | – | – | – | – | – | >1,000 mg/kg | >3,000 mg/kg | – |
| O=C(O)c1ccc(Cl)c(S(=O)(=O)Nc2ccccc2)c1 [Compound 9] | – | – | – | – | – | – | – | – | – | – | – | >3,000 mg/kg | – |
| NC(=O)NNS(=O)(=O)c1cc(C(=O)O)c(Cl)cc1Cl [Compound 23] | 100 (≈ 305 µM) | 300 (≈ 914 µM) | 300 (≈ 914 µM) | 100 (≈ 305 µM) | 300 (≈ 914 µM) | 300 (≈ 914 µM) | 300 (≈ 914 µM) | 40 | > 1000 | > 3000 | – | – | responders at 100 mg/kg [8, 12]: 40% |
| NS(=O)(=O)c1cc(C(=O)O)c(Br)cc1Cl [Compound 18] | 30 (≈ 95.4 µM) | 300 (≈ 954 µM) | 300 (≈ 954 µM) | 300 (≈ 954 µM) | 3 (≈ 9.54 µM) | 30 (≈ 95.4 µM) | 300 (≈ 954 µM) | 70 | > 1000 | > 3000 | – | – | responders at 100 mg/kg [8, 11]: 50%; responders at 30 mg/kg [8, 12]: 50%; responders at 100 mg/kg [8, 12]: 70%; protective action against death due to the infection [8]: extremely excellent activity |
| NNS(=O)(=O)c1cc(C(=O)O)ccc1Cl [Compound 7] | 10 (≈ 39.9 µM) | 300 (≈ 1200 µM) | 100 (≈ 399 µM) | 300 (≈ 1200 µM) | 300 (≈ 1200 µM) | 300 (≈ 1200 µM) | 300 (≈ 1200 µM) | 60 | 746 | > 3000 | – | – | responders at 100 mg/kg [8, 11]: 40%; responders at 10 mg/kg ([8]; Mus musculus, ip, 360 h, intraperitoneal, 10 mg/kg, twice a day for 14 days, survivors at 15th day, read-out: Survival rate): 30%; responders at 30 mg/kg [8, 12]: 50%; protective action against death due to the infection [8]: extremely excellent activity |
| CCOC(=O)c1cc(S(N)(=O)=O)c(Cl)cc1Cl [Compound 32] | – | – | – | – | – | – | – | – | > 1000 | > 3000 | – | – | responders at 100 mg/kg ([10]; po): 40%; responders at 300 mg/kg ([10]; po): 50% |
| CC(C)OC(=O)c1cc(S(N)(=O)=O)c(Cl)cc1Cl [Compound 34] | – | – | – | – | – | – | – | – | > 1000 | > 3000 | – | – | responders at 30 mg/kg ([10]; ip): 30%; responders at 100 mg/kg ([10]; ip): 40% |
| O=C(O)c1ccc(Cl)c(S(=O)(=O)N2CCCC2)c1 [Compound 12] | 30 (≈ 104 µM) | 300 (≈ 1040 µM) | 300 (≈ 1040 µM) | 300 (≈ 1040 µM) | 300 (≈ 1040 µM) | 100 (≈ 345 µM) | 300 (≈ 1040 µM) | 40 | > 1000 | > 3000 | – | – | responders at 100 mg/kg [8, 12]: 40% |
| O=C(O)c1ccc(Cl)c(S(=O)(=O)N2CCOCC2)c1 [Compound 11] | – | – | – | – | – | – | – | – | – | – | >1,000 mg/kg | >3,000 mg/kg | – |
| CN(C)S(=O)(=O)c1cc(C(=O)O)ccc1Cl [Compound 3] | – | – | – | – | – | – | – | – | – | – | >1,000 mg/kg | >3,000 mg/kg | – |
| COC(=O)c1ccc(F)c(S(N)(=O)=O)c1 [Compound 28] | – | – | – | – | – | – | – | – | – | – | >1,000 mg/kg | >3,000 mg/kg | – |
| NS(=O)(=O)c1cc(C(=O)OC2CCCCC2)c(Cl)cc1Cl [Compound 38] | – | – | – | – | – | – | – | – | > 1000 | > 3000 | – | – | responders at 30 mg/kg ([10]; ip): 30%; responders at 100 mg/kg ([10]; ip): 40% |
| NS(=O)(=O)c1cc(C(=O)O)c(Cl)cc1Cl [Compound 19] | – | – | – | – | – | – | – | – | – | – | >1,000 mg/kg | >3,000 mg/kg | protective action against death due to the infection [8]: extremely excellent activity |
| CNS(=O)(=O)c1cc(C(=O)O)ccc1Cl [Compound 1] | – | – | – | – | – | – | – | – | – | – | >1,000 mg/kg | >3,000 mg/kg | – |
